In one test the target is EGF-R (HER-1) (Homo sapiens, UniProt P00533). Description: Inhibition of the tyrosine kinase activity of EGF-R (HER-1). Format: biochemical. Further details: dose or concentration left out as unconfirmed.
The next test addresses T1, VEGF receptor (KDR) (Homo sapiens, UniProt P35968).
T1 construct: expressed in transfected cells
Briefly: Inhibition of VEGF-induced KDR-receptor autophosphorylation in transfected CHO cells. In kind it is cell-based. As for the experimental part: The inhibition of VEGF-induced KDR-receptor autophosphorylation can be confirmed with a further in vitro experiment in cells: transfected CHO cells, which permanently express human VEGF receptor (KDR), are seeded in complete culture medium with 10% fetal calf serum (FCS) in 6-well cell-culture plates and incubated at 37° C. under 5% CO2 until they show about 80% confluency. The compounds to be tested are then diluted in culture medium (without FCS, with 0.1% bovine serum albumin) and added to the cells. (Controls comprise medium without test compounds). After two hours of incubation at 37° C., recombinant VEGF is added; the final VEGF concentration is 20 ng/mL). After a further five minute incubation at 37° C., the cells are washed twice with ice-cold PBS (phosphate-buffered saline) and immediately lysed in 100 μL lysis buffer per well. The lysates are then centrifuged to remove the cell nuclei, and the protein concentrations of the supernatants are determined using a commercial protein assay (BIORAD). The lysates can then either be immediately used or, if necessary, stored at −20° C.
A sandwich ELISA is carried out to measure the KDR-receptor phosphorylation: a monoclonal antibody to KDR (for example Mab 1495.12.14) is immobilized on black ELISA plates (OptiPlate™ HTRF-96 from Packard). The plates are then washed and the remaining free protein-binding sites are saturated with 1% BSA in PBS. The cell lysates (20 μg protein per well) are then incubated in these plates overnight at 4° C. together with an anti-phosphotyrosine antibody coupled with alkaline phosphatase (PY20: AP from Transduction Laboratories). […] The luminescence is measured in a Packard Top Count Microplate Scintillation Counter (Top Count). The difference between the signal of the positive control (stimulated with VEGF) and that of the negative control (not stimulated with VEGF) corresponds to VEGF-induced KDR-receptor phosphorylation (=100%). The activity of the tested substances is calculated as % inhibition of VEGF-induced KDR-receptor phosphorylation, wherein the concentration of substance that induces half the maximum inhibition is defined as the IC50 (effective dose for 50% inhibition).

The next test concerns the target T2, c-Raf-1 (Homo sapiens, UniProt P04049).
T2 construct: made in house; host or cells: Sf21 insect cells, triple baculovirus infection (GST-c-Raf-1, v-Ras, v-Src)
Briefly: c-Raf-1 protein kinase assay. Format: biochemical. Further details: dose or concentration left out as unconfirmed. As for the experimental part: c-Raf-1 protein kinase assay: Recombinant c-Raf-1 protein is obtained by triple infection of Sf21 cells with GST-c-Raf-1 recombinant baculovirus together with v-Src and v-Ras recombinant baculoviruses that are required for active c-Raf-1 kinase production (Williams et al., PNAS 1992; 89:2922-6). Active Ras (v-Ras) is required to recruit c-Raf-1 to the cell membrane and v-Src to phosphorylate c-Raf-1 to fully activate it. Cells are seeded at 2.5×10^7 cells per 150 mm dish and allowed to attach to a 150 mm dish for 1 hr at RT. Media (SF900II containing 10% FBS) is aspirated and recombinant baculovirus GST-c-Raf-1, v-Ras and v-Src are added at MOI of 3.0, 2.5 and 2.5, respectively, in a total volume of 4-5 mL. Cells are incubated for 1 hr at RT and then 15 mL of medium is added. Infected cells are incubated for 48-72 hr at 27° C. Infected Sf21 cells are scraped and collected into a 50 mL tube and centrifuged for 10 min at 4° C. at 1100 g in a Sorvall centrifuge. The cell pellet is washed once with ice cold PBS and lysed with 0.6 mL lysis buffer per 2.5×10^7 cells. Complete lysis of cells is achieved after 10 min on ice with occasional pipetting. The cell lysates are centrifuged for 10 min at 4° C. at 14,500 g in a Sorvall centrifuge with SS-34 rotor and the supernatant is transferred to a fresh tube and stored at −80° C. c-Raf-1 is purified from cell lysates using 100 μL of packed glutathione-sepharose 4B beads equilibrated in ice cold PBS per 2.5×10^7 cells. GST-c-Raf-1 is allowed to bind to the beads at 4° C. for 1 hr with rocking. Bound GST-c-Raf-1 with beads is transferred to a column. The column is washed once with lysis buffer and twice with ice cold Tris buffered saline. Ice cold elution buffer is added and column flow is stopped to allow the free glutathione to disrupt the interaction of GST-c-Raf-1 with glutathione sepharose beads. Fractions (1 mL) are collected into pre-chilled tubes. Each tube contains 10% glycerol (final concentration) to maintain kinase activity during freeze thaw cycles. Purified fractions of GST-c-Raf-1 kinase protein are stored at −80° C.
IκB is used as substrate for the c-Raf-1 kinase. IκB is expressed in bacteria as a His-tagged protein BL21. LysS bacteria containing the IκB plasmid are grown to an OD600 of 0.6 in LB medium, then induced to express the IκB with IPTG (final concentration of 1 mM) for 3 hrs at 37° C. and then bacteria are lysed by sonication (microtip limit setting for 3 times at 1 min each in sonication buffer [50 mM Tris pH 8.0, 1 mM DTT, 1 mM EDTA] and centrifuged at 10,000 g for 15 min. The supernatant is mixed with ammonium sulfate to give a final concentration of 30%. This mixture is rocked for 15 min at 4 C then spun at 10,000 g for 15 min. The pellet is resuspended in binding buffer (Novagen) containing 10 mM BSA. This solution is applied to Ni-agarose (Novagen) and washed according to the Novagen manual. IκB is eluted from the column using elution buffer (0.4 M imidazole, 0.2 M NaCl, 8 mM Tris pH 7.9). Fractions containing protein are dialysed in 50 mM Tris pH 8, 1 mM DTT. The activity of c-Raf-1 protein kinase is assayed in the presence or absence of inhibitors, by measuring the incorporation of ^33P from [γ^33P] ATP into IκB. The assay is carried out in 96-well plates at ambient temperature for 60 min. It contains (total volume of 30 μL): c-Raf-1 kinase (400 ng), 25 mM Tris.HCl, pH 7.5, 5 mM MgCl2, 5 mM MnCl2, 10 μM Na3VO4, 1 mM DTT and 0.3 μCi/assay [γ^33P]-ATP (10 μM ATP) using 600 ng IκB in the presence of 1% DMSO. Reactions are terminated by adding 10 μL of 250 mM EDTA and 30 μL of the reaction mixture is transferred onto Immobilon-PVDF membrane (Millipore, Bedford, Mass., USA) previously soaked for 5 min with methanol, rinsed with water, then soaked for 5 min with 0.5% H3PO4 and mounted on vacuum manifold with disconnected vacuum source. After spotting all samples, vacuum is connected and each well rinsed with 200 μL 0.5% H3PO4. […]

These results are taken from patent publication US7625894B2, “Pyrrolo[2,3-d]Pyrimidines as Protein Tyrosine Kinase Inhibitors” (Novartis AG, priority 2004, dated 2009).

T2 sequence (P04049 whole entry): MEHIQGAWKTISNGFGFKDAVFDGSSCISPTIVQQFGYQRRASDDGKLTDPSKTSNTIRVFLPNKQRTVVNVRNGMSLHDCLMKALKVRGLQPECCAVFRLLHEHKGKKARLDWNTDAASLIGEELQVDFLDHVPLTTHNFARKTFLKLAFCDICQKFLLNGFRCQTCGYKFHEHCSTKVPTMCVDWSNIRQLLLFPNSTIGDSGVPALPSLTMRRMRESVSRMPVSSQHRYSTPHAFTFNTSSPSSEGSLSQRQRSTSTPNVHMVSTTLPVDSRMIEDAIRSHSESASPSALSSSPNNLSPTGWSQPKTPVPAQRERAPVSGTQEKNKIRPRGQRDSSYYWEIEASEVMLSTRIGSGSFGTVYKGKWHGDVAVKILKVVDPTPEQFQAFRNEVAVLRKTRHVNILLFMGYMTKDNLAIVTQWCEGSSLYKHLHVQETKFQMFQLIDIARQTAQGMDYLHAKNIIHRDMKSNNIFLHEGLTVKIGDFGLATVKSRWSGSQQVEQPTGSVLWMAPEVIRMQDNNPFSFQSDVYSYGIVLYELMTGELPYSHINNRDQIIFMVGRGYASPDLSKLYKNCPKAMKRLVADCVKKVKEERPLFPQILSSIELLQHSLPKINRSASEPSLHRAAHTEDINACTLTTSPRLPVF
Chain of EGF-R (HER-1) (P00533 25-1210): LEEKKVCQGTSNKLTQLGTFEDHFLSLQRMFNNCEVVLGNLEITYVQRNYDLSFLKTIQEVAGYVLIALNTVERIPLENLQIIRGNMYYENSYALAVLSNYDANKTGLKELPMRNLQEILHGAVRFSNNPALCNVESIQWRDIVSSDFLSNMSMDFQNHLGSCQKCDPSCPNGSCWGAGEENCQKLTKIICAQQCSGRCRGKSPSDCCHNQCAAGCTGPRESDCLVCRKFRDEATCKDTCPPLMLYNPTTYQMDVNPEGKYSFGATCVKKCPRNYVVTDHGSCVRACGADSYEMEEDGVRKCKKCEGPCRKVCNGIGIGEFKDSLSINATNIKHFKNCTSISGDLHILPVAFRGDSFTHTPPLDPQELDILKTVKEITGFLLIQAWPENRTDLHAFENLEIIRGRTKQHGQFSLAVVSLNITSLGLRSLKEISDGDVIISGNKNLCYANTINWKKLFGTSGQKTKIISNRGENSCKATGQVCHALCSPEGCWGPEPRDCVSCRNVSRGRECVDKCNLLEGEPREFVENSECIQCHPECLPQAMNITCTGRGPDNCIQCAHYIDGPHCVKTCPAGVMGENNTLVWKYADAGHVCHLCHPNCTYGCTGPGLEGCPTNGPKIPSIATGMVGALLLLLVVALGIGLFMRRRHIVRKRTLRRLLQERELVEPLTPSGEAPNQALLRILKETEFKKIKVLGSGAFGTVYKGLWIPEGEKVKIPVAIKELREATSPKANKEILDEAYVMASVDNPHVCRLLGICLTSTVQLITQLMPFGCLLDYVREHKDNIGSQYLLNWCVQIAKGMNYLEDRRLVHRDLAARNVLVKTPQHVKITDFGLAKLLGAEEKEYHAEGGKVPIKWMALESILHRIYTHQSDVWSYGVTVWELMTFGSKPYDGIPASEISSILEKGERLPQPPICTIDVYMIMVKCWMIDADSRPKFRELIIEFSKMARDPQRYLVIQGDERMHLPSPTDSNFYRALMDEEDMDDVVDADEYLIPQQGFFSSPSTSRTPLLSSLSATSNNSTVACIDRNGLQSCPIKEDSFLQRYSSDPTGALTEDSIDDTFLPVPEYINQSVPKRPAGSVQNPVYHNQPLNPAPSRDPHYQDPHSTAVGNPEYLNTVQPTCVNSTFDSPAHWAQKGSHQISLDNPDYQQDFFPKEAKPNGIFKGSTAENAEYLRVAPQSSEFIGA
T1 sequence (P35968 20-1356): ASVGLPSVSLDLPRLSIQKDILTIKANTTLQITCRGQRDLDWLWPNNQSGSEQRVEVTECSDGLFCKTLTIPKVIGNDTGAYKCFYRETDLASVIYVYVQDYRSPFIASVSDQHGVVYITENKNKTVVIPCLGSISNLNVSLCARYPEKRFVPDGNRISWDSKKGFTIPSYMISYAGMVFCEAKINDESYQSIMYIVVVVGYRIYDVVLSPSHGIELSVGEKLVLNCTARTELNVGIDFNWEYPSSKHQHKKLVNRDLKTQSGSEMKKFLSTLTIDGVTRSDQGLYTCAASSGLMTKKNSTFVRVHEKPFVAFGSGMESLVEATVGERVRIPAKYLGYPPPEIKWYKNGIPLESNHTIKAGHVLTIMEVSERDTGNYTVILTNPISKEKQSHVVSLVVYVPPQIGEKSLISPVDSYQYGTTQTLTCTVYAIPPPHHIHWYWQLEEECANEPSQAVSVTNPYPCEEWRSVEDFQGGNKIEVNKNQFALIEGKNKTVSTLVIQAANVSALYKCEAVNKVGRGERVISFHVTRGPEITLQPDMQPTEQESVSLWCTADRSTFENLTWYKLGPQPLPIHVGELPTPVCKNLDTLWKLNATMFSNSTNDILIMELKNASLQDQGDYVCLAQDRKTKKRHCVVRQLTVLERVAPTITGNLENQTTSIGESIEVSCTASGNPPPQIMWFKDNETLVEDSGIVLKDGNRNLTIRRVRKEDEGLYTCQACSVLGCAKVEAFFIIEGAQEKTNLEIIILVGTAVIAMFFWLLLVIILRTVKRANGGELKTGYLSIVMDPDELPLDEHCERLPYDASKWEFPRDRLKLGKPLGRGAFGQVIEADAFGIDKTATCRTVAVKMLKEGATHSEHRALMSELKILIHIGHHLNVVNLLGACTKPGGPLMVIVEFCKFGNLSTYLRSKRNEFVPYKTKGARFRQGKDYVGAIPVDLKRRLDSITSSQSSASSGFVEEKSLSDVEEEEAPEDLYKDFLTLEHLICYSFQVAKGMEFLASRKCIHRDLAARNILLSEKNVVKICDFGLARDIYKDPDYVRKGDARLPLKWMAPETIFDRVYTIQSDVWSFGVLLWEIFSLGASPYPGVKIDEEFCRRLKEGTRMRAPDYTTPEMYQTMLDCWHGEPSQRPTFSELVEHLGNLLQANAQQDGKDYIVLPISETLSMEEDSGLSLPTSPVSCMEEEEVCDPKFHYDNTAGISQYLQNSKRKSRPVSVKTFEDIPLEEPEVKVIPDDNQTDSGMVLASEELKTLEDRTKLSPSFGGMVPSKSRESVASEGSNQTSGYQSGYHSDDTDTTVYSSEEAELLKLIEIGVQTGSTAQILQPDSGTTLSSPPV

For the compound `CN1CCN(C(=O)c2ccc(-c3cc4c(N(C)C)ncnc4[nH]3)cc2)CC1` [Example 3, [4-(4-Dimethylamino-7H-pyrrolo[2,3-d]pyrimidin-6-yl)-phenyl]-(4-methyl-piperazin-1-yl)-methanone], at EGF-R (HER-1), the “HER-1/ %-inh. [%]” value is listed as 59%. For the same compound, the “KDR (% inh)” value at VEGF receptor (KDR) turned out to be 85%. The “c-Raf-1/ %-inh. [%]” value at c-Raf-1 is given as 51%.

Regarding `CN1CCN(Cc2ccc(-c3cc4c(N(C)C)ncnc4[nH]3)cc2)CC1` [Example 4, Dimethyl-{6-[4-(4-methyl-piperazin-1-ylmethyl)-phenyl]-7H-pyrrolo[2,3-d]pyrimidin-4-yl}-amine], the “HER-1/ %-inh. [%]” value at EGF-R (HER-1) was 64%. At VEGF receptor (KDR), the “KDR (% inh)” value is on record as 86%. Besides, on c-Raf-1, the “c-Raf-1/ %-inh. [%]” value is given as 40%.

With `CCN(CC)CCCNC(=O)c1ccc(-c2cc3c(N(C)C)ncnc3[nH]2)cc1` [Example 5, N-(3-Diethylamino-propyl)-4-(4-dimethylamino-7H-pyrrolo[2,3-d]pyrimidin-6-yl)-benzamide], at EGF-R (HER-1), the “HER-1/ %-inh. [%]” value came to 58%. For the same compound, the “KDR (% inh)” value on VEGF receptor (KDR) came out at 79%. Also, at c-Raf-1, the “c-Raf-1/ %-inh. [%]” value came out at 48%.

Consider `CN(C)c1ncnc2[nH]c(-c3ccc(C(=O)N4CCOCC4)cc3)cc12` [Example 6, [4-(4-Dimethylamino-7H-pyrrolo[2,3-d]pyrimidin-6-yl)-phenyl]-morpholin-4-yl-methanone], for which the “HER-1/ %-inh. [%]” value at EGF-R (HER-1) is 70%. The “KDR (% inh)” value on VEGF receptor (KDR) came to 83%. In addition, the “c-Raf-1/ %-inh. [%]” value at c-Raf-1 is given as 63%.

Take `CN(C)c1ncnc2[nH]c(-c3ccc(C(=O)NCCCN4CCOCC4)cc3)cc12` [Example 7, 4-(4-Dimethylamino-7H-pyrrolo[2,3-d]pyrimidin-6-yl)-N-(3-morpholin-4-yl-propyl)-benzamide]: the “HER-1/ %-inh. [%]” value on EGF-R (HER-1) is recorded as 59%. The “KDR (% inh)” value at VEGF receptor (KDR) turned out to be 79%.

For the compound `CNc1ncnc2[nH]c(-c3ccc(C(=O)N4CCN(C)CC4)cc3)cc12` [Example 12, [4-(4-Methylamino-7H-pyrrolo[2,3-d]pyrimidin-6-yl)-phenyl]-(4-methyl-piperazin-1-yl)-methanone], the “HER-1/ %-inh. [%]” value on EGF-R (HER-1) came to 85%. Further, at VEGF receptor (KDR), the “KDR (% inh)” value turned out to be 67%. In addition, the “c-Raf-1/ %-inh. [%]” value at c-Raf-1 stood at 22%.

As for `CN1CCN(C(=O)c2ccc(-c3cc4c(NCCCO)ncnc4[nH]3)cc2)CC1` [Example 15, {4-[4-(3-Hydroxy-propylamino)-7H-pyrrolo[2,3-d]pyrimidin-6-yl]-phenyl}-(4-methyl-piperazin-1-yl)-methanone], on EGF-R (HER-1), the “HER-1/ %-inh. [%]” value was 94%. In addition, on VEGF receptor (KDR), the “KDR (% inh)” value is listed as 80%. Also, the “c-Raf-1/ %-inh. [%]” value at c-Raf-1 is 64%.

Regarding `CNc1ncnc2[nH]c(-c3ccc(CN4CCN(C)CC4)cc3)cc12` [Example 16, Methyl-{6-[4-(4-methyl-piperazin-1-ylmethyl)-phenyl]-7H-pyrrolo[2,3-d]pyrimidin-4-yl}-amine], the “HER-1/ %-inh. [%]” value on EGF-R (HER-1) amounted to 94%. Also, the “KDR (% inh)” value on VEGF receptor (KDR) was determined as 85%. Also, the “c-Raf-1/ %-inh. [%]” value on c-Raf-1 came out at 67%.

For `CCCNc1ncnc2[nH]c(-c3ccc(C(=O)N4CCN(C)CC4)cc3)cc12` [Example 17, (4-Methyl-piperazin-1-yl)-[4-(4-propylamino-7H-pyrrolo[2,3-d]pyrimidin-6-yl)-phenyl]-methanone], the “HER-1/ %-inh. [%]” value at EGF-R (HER-1) came to 95%. The “KDR (% inh)” value on VEGF receptor (KDR) was 81%. Further, the “c-Raf-1/ %-inh. [%]” value at c-Raf-1 is listed as 100%.

Regarding `CCCNc1ncnc2[nH]c(-c3ccc(CN4CCN(C)CC4)cc3)cc12` [Example 18, {6-[4-(4-Methyl-piperazin-1-ylmethyl)-phenyl]-7H-pyrrolo[2,3-d]pyrimidin-4-yl}-propyl-amine], the “HER-1/ %-inh. [%]” value on EGF-R (HER-1) was determined as 98%. The “KDR (% inh)” value on VEGF receptor (KDR) is on record as 83%. The “c-Raf-1/ %-inh. [%]” value at c-Raf-1 worked out at 100%.

With `CCCN(C)c1ncnc2[nH]c(-c3ccc(CN4CCN(C)CC4)cc3)cc12` [Example 19, Methyl-{6-[4-(4-methyl-piperazin-1-ylmethyl)-phenyl]-7H-pyrrolo[2,3-d]pyrimidin-4-yl}-propyl-amine], the “HER-1/ %-inh. [%]” value at EGF-R (HER-1) worked out at 97%. Further, the “KDR (% inh)” value on VEGF receptor (KDR) is 85%. In addition, on c-Raf-1, the “c-Raf-1/ %-inh. [%]” value was determined as 100%.
